These results are taken from patent US6566073B1, “Materials and methods involving conditional retention domains” (Ariad Gene Therapeutics, Inc., priority 1998, dated 2003).

SMILES strings stand for the structures.

Experiment [1] addresses T1, F(36M)-hGH fusion protein in HT88 cells (stably transfected HT1080) (Homo sapiens, UniProt P01241+P62942, F37M).
T1 construct: 4 copies of the F(36M) domain; expressed in transfected cells; host or cells: HT1080 human fibrosarcoma cells, stably transfected pool HT88
The experiment in a line: Ligand-dependent hGH secretion from HT88 cells (radioimmunoassay). The settings on record: FIG. 5A. In kind it is cell-based. The protocol: A vector driving the expression of this fusion protein, under control of the strong constitutive enhancer from CMV, was transiently transfected into HT1080 cells, a human fibrosarcoma cell line. Following overnight incubation of cells in the absence of ligand, the medium was washed away and fresh medium added, with or without ligand. Two hours later, the amount of hGH secreted into the medium was determined by radioimmunoassay. […] In contrast, in the presence of ligand, the amount of hGH secreted was several hundred-fold greater.
Pools of clones stably transfected with the F(36M)-hGH fusion protein (HT88 pool) were analyzed as described for the transiently transfected cells. […] To determine the constitutive rate of hGH secretion, the amount of hGH secreted in the presence of ligand was measured from cells that had already been exposed to ligand for 15 hours. As shown in lane 3, the constitutive rate of secretion from the HT88 cell line was very similar to the rate of secretion from the HT89 cell line which had been stably transfected with the wild type hGH protein (lane 4). Thus, in the presence of ligand the F(36M) domains have no detectable “retention” activity. […] This steady state level of stored F(36M)-hGH fusion protein can persist for months in the cell line with no apparent toxic effect. […]

Experiment [2] deals with T2, F(36M)4-hIn-m3 fusion protein in HT1080 cells (Homo sapiens, UniProt P01308+P62942, F37M/H34D/K53R/L86R/R55K).
T2 construct: fusion of F(36M) domains to insulin results in a suppression of its secretion; expressed in transfected cells; host or cells: HT1080 cells, transient transfection
T2 sequence (P62942+P01308 fused P62942:F37M/P01308:H34D/P01308:K53R/P01308:R55K/P01308:L86R): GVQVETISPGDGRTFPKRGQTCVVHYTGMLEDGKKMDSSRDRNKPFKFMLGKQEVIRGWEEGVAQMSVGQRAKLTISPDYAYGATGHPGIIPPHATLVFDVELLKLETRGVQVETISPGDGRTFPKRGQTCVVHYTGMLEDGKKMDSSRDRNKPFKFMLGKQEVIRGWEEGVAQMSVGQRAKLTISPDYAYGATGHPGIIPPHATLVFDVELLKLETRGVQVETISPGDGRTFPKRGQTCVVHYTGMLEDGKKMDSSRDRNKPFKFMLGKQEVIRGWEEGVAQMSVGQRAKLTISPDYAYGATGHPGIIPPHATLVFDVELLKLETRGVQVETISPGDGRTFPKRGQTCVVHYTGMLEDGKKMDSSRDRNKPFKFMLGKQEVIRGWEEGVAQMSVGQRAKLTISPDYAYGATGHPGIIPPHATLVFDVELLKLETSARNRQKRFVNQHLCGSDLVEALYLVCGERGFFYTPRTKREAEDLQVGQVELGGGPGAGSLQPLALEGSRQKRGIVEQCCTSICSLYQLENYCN
The experiment in a line: Regulated insulin secretion from transiently transfected HT1080 cells (C-peptide ELISA). The settings on record: increasing concentrations of ligand, 3 hours, FIG. 8. The format is cell-based. The protocol: A vector driving expression of this F(36M)-insulin fusion protein (F(36M)4-hIn-m3) was transiently transfected into HT1080 cells. For comparison, vectors driving the expression of insulin protein alone, with (hIn-m3) or without (hIn-wt) the three mutations were also transfected. Following overnight incubation of cells in the absence of ligand, the medium was washed away and fresh medium added, without or with increasing concentrations of the monomeric ligand, AP21998. Three hours later, the amount of insulin secreted into the medium was determined by ELISA using an assay that recognizes an epitope within the C-peptide (ALPCO).

Another experiment addresses F36M-FKBP (Homo sapiens, UniProt P62942, F37M). Description: Binding of bumped FKBP ligands to F36M-FKBP. The source says: (§1) AP21998 and AP22542 are ligands of FKBP that have particular utility for CAD applications, because they bind with high affinity to F36M-FKBP but poorly to the wild-type protein, and are thus anticipated to lead to minimal interactions with the endogenous proteins during in vivo applications. The design and assay of such “bumped” ligands that target a hole created by truncating FKBP residue Phe36 have been described (Clackson et al., Proc. Natl. Acad. Sci. USA 95:10437-10442, 1998).

The next experiment deals with wild-type FKBP (Homo sapiens, UniProt P62942). The experiment in a line: Binding of bumped FKBP ligands to wild-type FKBP.
Sequence of wild-type FKBP (P62942 whole entry): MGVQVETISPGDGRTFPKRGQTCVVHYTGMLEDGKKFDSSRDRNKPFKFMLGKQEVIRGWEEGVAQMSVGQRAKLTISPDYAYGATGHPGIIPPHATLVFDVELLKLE
Source text: as §1

The target of experiment [3] is T3, F(36M)4-hIn-m3 fusion protein in implanted HT101-10p cells (Homo sapiens, UniProt P01308+P62942, F37M/H34D/K53R/L86R/R55K).
T3 construct: fusion of F(36M) domains to insulin results in a suppression of its secretion; expressed in transfected cells; host or cells: HT101-10p cells (HT1080 stably transfected), implanted intramuscularly into male nu/nu mice
T3 sequence (P62942+P01308 fused P62942:F37M/P01308:H34D/P01308:K53R/P01308:R55K/P01308:L86R): as the sequence (P62942+P01308 fused P62942:F37M/P01308:H34D/P01308:K53R/P01308:R55K/P01308:L86R) above
Description: Regulated insulin secretion in vivo: serum insulin and glucose in STZ-treated mice implanted with HT101-10p cells. More on the design: species or system male nu/nu mice. The method, then:
To test whether this system could be used to regulate secretion of insulin in vivo and effect changes in serum glucose levels, 2×10e7 HT101-10p cells were implanted intramuscularly into male nu/nu mice. HT101-10p cells were generated by stably transfecting HT1080 cells with a vector that drives expression of the F(36M)4-hIn-m3 fusion protein. Mice were made hyperglycemic by treatment 2 days earlier with 300 mg/kg streptozotocin (STZ). […] Approximately 1 hr after cells are implanted, animal received vehicle or the indicated dose of intravenous AP22542 (an analog of AP21998). Two hours later, serum samples were collected and assayed for insulin (Ultrasensitive human insulin-specific RIA, Linco) and glucose (Sigma) concentrations. […] In contrast, in animals treated with 10 mg/kg AP22542, serum insulin levels increase to ˜200 pM and serum glucose levels decline to ˜75 mg/dl.
To examine the kinetics of this ligand-induced reduction in serum glucose, STZ-treated mice implanted with 2×10e7 HT101-10p cells were administered a single dose of 30 mg/kg AP22542 intravenously. Serum glucose levels were measured at various times between 5 minutes and 10 hours later. […] This effect is transient as serum glucose levels rise to 350 mg/dl within 5 hours and return to baseline between 6 and 10 hours later. Since insulin secretion is dependent on the presence of the drug, administration of lower doses of AP22542 or of a ligand with a shorter half life should result in an even more transient production of secreted protein and resulting physiological effect. Conversely, administration of higher doses of AP22542 or of a ligand with a longer half life should result in a more prolonged production of secreted protein.

Where [4] appears, read: 1 mg/kg intravenous, 2 hours after dose, hyperglycemic mice.

T1 sequence (P62942+P01241 fused P62942:F37M): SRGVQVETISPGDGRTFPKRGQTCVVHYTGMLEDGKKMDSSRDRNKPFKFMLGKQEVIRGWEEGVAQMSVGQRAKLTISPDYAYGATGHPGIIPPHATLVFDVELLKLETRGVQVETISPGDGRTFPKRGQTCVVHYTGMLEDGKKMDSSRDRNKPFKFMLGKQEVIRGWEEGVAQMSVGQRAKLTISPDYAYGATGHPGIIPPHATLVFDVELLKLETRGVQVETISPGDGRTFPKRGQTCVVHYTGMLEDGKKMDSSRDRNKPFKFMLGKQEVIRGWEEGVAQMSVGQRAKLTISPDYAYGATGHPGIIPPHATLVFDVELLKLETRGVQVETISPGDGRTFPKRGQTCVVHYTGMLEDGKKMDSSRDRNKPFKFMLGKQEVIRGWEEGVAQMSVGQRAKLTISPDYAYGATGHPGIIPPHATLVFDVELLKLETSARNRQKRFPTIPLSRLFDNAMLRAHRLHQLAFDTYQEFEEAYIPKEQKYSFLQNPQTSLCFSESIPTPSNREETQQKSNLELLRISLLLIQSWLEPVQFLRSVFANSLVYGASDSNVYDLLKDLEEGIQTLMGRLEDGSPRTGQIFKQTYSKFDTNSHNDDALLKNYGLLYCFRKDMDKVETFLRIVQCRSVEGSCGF
Sequence of F36M-FKBP (P62942 whole entry F37M, the tested form may be a part): as the sequence (P62942 whole entry) above, with F37M counted along it

As to `CC[C@H](C(=O)N1CCCCC1C(=O)O[C@H](CCc1ccc(OC)c(OC)c1)c1cccc(OCC(=O)NCCCN(C)C)c1)c1cc(OC)c(OC)c(OC)c1` (stereo partly drawn) [AP21998], in experiment [1], the “concentration giving peak level of hGH secretion” value lay within 2 to 3 µM. Besides, the EC50 in experiment [1] (read-out: half-maximal secretion of hGH) is 600 nM. Further, the “insulin secretion into medium” value in experiment [2] is given as “secretion is induced in the presence of monomer in a dose-dependent manner”. The “binding to F36M-FKBP” value on F36M-FKBP is reported as “high affinity”. Besides, the “binding to the wild-type protein” value on wild-type FKBP is “poorly”.

In the case of `CC[C@H](C(=O)N1CCCC[C@H]1C(=O)O[C@H](CCc1ccc(OC)c(OC)c1)c1cccnc1)c1cc(OC)c(OC)c(OC)c1` [AP22542, 1-[2(S)-(3,4,5-trimethoxyphenyl)-butyryl]-piperdine-2(S)-carboxylic acid, 3-(3,4-Dimethoxyphenyl)-1-pyridin-3-yl-propan-1(R)-ol ester], the “binding to F36M-FKBP” value at F36M-FKBP is “high affinity”. For the same compound, the “binding to the wild-type protein” value at wild-type FKBP is recorded as “poorly”. In addition, the serum glucose result is on record as “no change in serum glucose” in experiment [3] (setting [4]) and “significant reduction in serum glucose” in experiment [3] (30 mg/kg intravenous single dose, within 30 minutes). Also, the serum insulin levels result in experiment [3] (setting [4]) was “fails to increase serum insulin levels above the lower limit of detection”; in experiment [3] (10 mg/kg intravenous, 2 hours after dose), approximately 200 pM. Moreover, the serum glucose levels in experiment [3] (10 mg/kg intravenous, 2 hours after dose, STZ baseline ~350 mg/dl) is approximately 75 mg/dL; in experiment [3] (30 mg/kg intravenous single dose, 5 and 15 minutes after administration), “indistinguishable from animals treated with vehicle”; in experiment [3] (30 mg/kg intravenous single dose, by two hours, initial levels nearly 500 mg/dl) it was 50 mg/dL; in experiment [3] (30 mg/kg intravenous single dose, within 5 hours), 350 mg/dL.
